Two compounds from patent US7879887B2, “α-amino acid derivatives and medicaments containing the same as an active ingredient” (Nissan Chemical Industries, Ltd., priority 2006, dated 2011) can be followed below.

One test has as its target T1, recombinant human βARK1 (Homo sapiens, UniProt P25098).
T1 construct: made in house; host or cells: Sf-9 insect cells (baculovirus, pBacPAK8)
T1 sequence (P25098 1-689): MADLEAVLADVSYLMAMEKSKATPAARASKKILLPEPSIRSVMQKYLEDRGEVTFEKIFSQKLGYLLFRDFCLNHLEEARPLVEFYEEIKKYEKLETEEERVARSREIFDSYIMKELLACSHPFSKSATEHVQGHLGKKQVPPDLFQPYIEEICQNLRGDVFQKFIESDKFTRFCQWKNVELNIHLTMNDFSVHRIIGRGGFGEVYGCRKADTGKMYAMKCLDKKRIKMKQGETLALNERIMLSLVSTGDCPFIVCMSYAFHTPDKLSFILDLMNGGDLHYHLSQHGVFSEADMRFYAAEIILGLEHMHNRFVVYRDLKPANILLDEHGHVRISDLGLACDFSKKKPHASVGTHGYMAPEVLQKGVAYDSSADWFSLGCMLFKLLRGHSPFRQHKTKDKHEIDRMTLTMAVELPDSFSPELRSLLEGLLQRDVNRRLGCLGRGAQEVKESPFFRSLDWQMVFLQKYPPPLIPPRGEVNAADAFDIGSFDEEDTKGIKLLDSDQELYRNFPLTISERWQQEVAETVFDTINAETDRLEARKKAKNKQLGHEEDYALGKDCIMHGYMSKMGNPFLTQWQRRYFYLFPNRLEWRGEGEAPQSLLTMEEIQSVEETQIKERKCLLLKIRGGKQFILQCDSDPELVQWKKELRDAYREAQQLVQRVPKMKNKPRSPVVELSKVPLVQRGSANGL
Nature of the test: Inhibitory activity against βARK1 (33P phosphorylation of synthetic peptide). The test is classed as biochemical. As to conditions: recombinant human βARK1, 60 minutes at room temperature. How it is done:
Human βARK1 was amplified by PCR based on the base sequence of human βARK1 mRNA registered in GenBank (Accession No. M80776) using a human leukocyte cDNA library (Gibco BRL Cat. No. 10421-022) as a template. The amplified cDNA fragment was inserted into a pBacPAK8 vector (Clontech) to construct a plasmid.
Recombinant human βARK1 was expressed using the BacPAK Baculovirus Expression System (Clontech, Cat. No. K1601-1). 1×10^6 Sf-9 cells were adhered to a 35 mm dish in 2.5 mL of TMN-FH Insect Medium containing 10 vol % FBS (Pharminogen, Cat. No. PM-21227M) and cultured overnight at 27° C. On the following day, the medium was removed and 500 ng of the above plasmid, BacPAK6 viral DNA cleaved with Bsu36I (5 μL) and 1.5 mL of the same medium mixed with 4 μL of Bacfectin were added followed by culturing for 5 hours, further adding 1.5 mL of medium and subsequently culturing for 5 days. […] The culture supernatant after 5 days was recovered and a plaque assay was carried out to isolate single plaques. These were then infected into Sf-9 cells and the resulting culture supernatant was designated as Passage 1 (1−3×10^11 pfu/mL). Passage 1 was added to 3×10^7 Sf-9 cells to a multiplicity of infection (MOI) of 0.1 (pfu/cell), suspension culturing was carried out for 5 days using a spinner flask, and the resulting culture supernatant was designated as Passage 2 (4×10^10 pfu/mL) and used as a viral liquid for large-volume expression.
Sf-9 cells at 3×10^9 cells/200 mL were infected by adding Passage 2 to an MOI of 100 followed by addition of medium to bring to a liquid volume of 2 L and further culturing for 3 days. After recovering the cells by centrifugation and washing three times with PBS, the cells were suspended in 100 mL of Lysis Buffer (20 mmol/L HEPES-HCl (pH 7.2), 5 mmol/L EDTA, 3 mmol/L phenylmethylsulfonyl fluoride (PMSF)). After lysing the cells by ultrasonic treatment at low temperature, the supernatant was recovered by centrifuging (45,000×g, 15 minutes) (sup1). NaCl was added to the resulting supernatant to a final concentration of 250 mmol/L followed by ultracentrifugation (300,000×g, 60 minutes) and using the subsequent supernatant as a crude cell extract (sup2).
Purification was carried out with reference to the literature (Benovic, J. L., Methods Enzymol. 1991; 200: 351-362; Kim, C. M. et al., Receptor 1993; 3: 39-55; Sohlemann, P. et al., FEBS Letters 1993; 324: 59-62). The crude cell extract was accurately brought to a volume of 400 mL with Buffer C (20 mmol/L HEPES-HCl (pH 7.2), 5 mmol/L EDTA, 0.02 vol % Triton X-100) followed by loading onto a 50 mL SP-Sepharose FF (Amersham Pharmacia Biotech) column equilibrated with Buffer C. […] ETA was carried out on each fraction using anti-GRK2 antibody (Santa-Cruz Cat. No. SC-562) and the positive fractions were collected (GRK2=βARK1). This was then diluted three-fold with Buffer C and loaded on a 5 mL HiTrap Heparin column (Amersham Pharmacia Biotech) column equilibrated with Buffer C. After washing the column with Wash Buffer (100 mmol/L NaCl, Buffer C), the column was eluted with an NaCl concentration gradient (100 to 600 mmol/L NaCl for 100 minutes, flow rate: 1 mL/min). The positive fractions as determined by ETA were collected and stored in a freezer at −80° C.
A synthetic peptide having an amino acid sequence of biotinated-[…] was used in accordance with a previous report (Chen, C. Y. et al., J. Biol. Chem. 1993; 268: 7825-7831). This synthetic peptide can also be synthesized with reference to known synthesis methods (for example, Chen, C. Y. et al., J. Biol. Chem. 1993; 268: 7825-7831, Biochemistry 1991; 30: 5118-5125). 2 μl of a DMSO solution in which the test compound was diluted to as to be […] the final concentration was dispensed into a 96-well plate (round bottom) (Falcon 351190) (final concentration: 4 vol % DMSO). […]

For the next test, the target named is CDK2/Cyclin E complex (Homo sapiens, UniProt P24941). Nature of the test: In vitro kinase assay, CDK2/Cyclin E complex. Format: biochemical. The following applies: recombinant protein (Upstate); read-out: CDK2/cyclinE IC50. As to the method: (§1) Inhibitory activity against Aurora A, CDK1/Cyclin B complex, CDK2/Cyclin E complex and CDK3/Cyclin E complex were measured by in vitro kinase assay using recombinant proteins.

A further test addresses T2, CDK3/Cyclin E complex (Homo sapiens, UniProt Q00526).
T2 construct: purchased Upstate Inc. 14-487
Nature of the test: In vitro kinase assay, CDK3/Cyclin E complex. The test is classed as biochemical. As to conditions: recombinant protein (Upstate); read-out: CDK3/cyclinE IC50. How it is done:
as §1

Test [1] has as its system colon carcinoma cell line SW620. Description: Cell proliferation inhibitory activity, SW620. Format: cell-based, human. The following applies: Homo sapiens, SW-620, 96 h, cells counted 4 days later with Cell Counting Kit-8. The procedure, abridged: (§2)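 Each line, maintained as the supplier recommends, is incubated with test compound dilutions for 4 days (37° C, 5% CO2). Counting uses CCK-8; 0% inhibition corresponds to untreated cells, 100% to medium without cells or compound, and IC50 is calculated from these.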

Test [2] has as its system pancreatic cancer cell line MIAPaCa-2. Nature of the test: Cell proliferation inhibitory activity, MIAPaCa-2. Format: cell-based. As to conditions: Homo sapiens, MIA PaCa-2, 96 h; cells counted 4 days later, Cell Counting Kit-8. How it is done:
Evaluations were carried out using colon carcinoma cell line SW620 (Cat. No. CCL-227), lung carcinoma cell line NCI-H460 (Cat. No. HTB-177), prostate cancer cell line DU 145 (Cat. No. HTB-81), breast cancer cell line MDA-MB-231 (Cat. No. HTB26) and leukemia cell line KG-1a (Cat. No. CCL-246.1) purchased from ATCC, pancreatic cancer cell line MIAPaCa-2 (Cat. No. CRL-1420) purchased from Dainippon Pharmaceutical, and ovarian cancer cell line IGROV1 received from the Netherland Cancer Institute. The cells were cultured under the conditions recommended by the supplier for each cell line, or with respect to IGROV1, according to the method described in Cancer Res. 59: 4559-4563, 1999. Cells suspended in media were added to solutions containing the test substances at various concentrations followed by culturing in a 5% CO2 incubator at 37° C. The numbers of cells were counted 4 days later with the Cell Counting Kit-8. IC50 values were calculated by assigning measured values in the case of not containing a test substance to an inhibition of 0%, and assigning measured values in the case of not containing a test substance or cells to an inhibition of 100%.
A general note: Tetrazolium dyes change colour on reduction, which living cells bring about.

Test [3] has as its system prostate cancer cell line DU 145. Nature of the test: Cell proliferation inhibitory activity, DU 145. The test is classed as cell-based, human. As to conditions: Homo sapiens, 96 h, cells counted 4 days later with Cell Counting Kit-8. The procedure, abridged:
as §2

The subject of test [4] is breast cancer cell line MDA-MB-231. Nature of the test: Cell proliferation inhibitory activity, MDA-MB-231. The test is classed as cell-based. The following applies: Homo sapiens, 96 h, cells counted 4 days later with Cell Counting Kit-8. Summed up:
as §2

In test [5] the test system is ovarian cancer cell line IGROV1. Nature of the test: Cell proliferation inhibitory activity, IGROV1. The test is classed as cell-based. The following applies: Homo sapiens, IGROV-1, 96 h, cells counted 4 days later with Cell Counting Kit-8. Summed up:
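IC50 values come from a 4-day proliferation assay in which cells were cultured with multiple test compound concentrations and quantified by Cell Counting Kit-8.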

In another test the test system is leukemia cell line KG-1a. Nature of the test: Cell proliferation inhibitory activity, KG-1a. The test is classed as cell-based. The following applies: Homo sapiens, 96 h, cells counted 4 days later with Cell Counting Kit-8. The procedure, abridged:
as §2

In test [6] the test system is lung carcinoma cell line NCI-H460. Nature of the test: Cell proliferation inhibitory activity, NCI-H460. Format: cell-based. As to conditions: Homo sapiens, 96 h, cells counted 4 days later with Cell Counting Kit-8. Summed up:
as §2

T2 sequence (Q00526 whole entry): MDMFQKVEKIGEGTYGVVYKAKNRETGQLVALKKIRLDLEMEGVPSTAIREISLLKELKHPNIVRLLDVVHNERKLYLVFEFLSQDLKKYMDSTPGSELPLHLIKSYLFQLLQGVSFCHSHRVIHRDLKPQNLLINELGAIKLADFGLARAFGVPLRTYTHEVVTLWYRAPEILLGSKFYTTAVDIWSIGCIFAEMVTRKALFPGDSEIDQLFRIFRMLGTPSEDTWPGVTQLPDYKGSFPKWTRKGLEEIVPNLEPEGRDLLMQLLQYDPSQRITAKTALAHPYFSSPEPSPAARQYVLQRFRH
T2 sequence (P24864 whole entry partner): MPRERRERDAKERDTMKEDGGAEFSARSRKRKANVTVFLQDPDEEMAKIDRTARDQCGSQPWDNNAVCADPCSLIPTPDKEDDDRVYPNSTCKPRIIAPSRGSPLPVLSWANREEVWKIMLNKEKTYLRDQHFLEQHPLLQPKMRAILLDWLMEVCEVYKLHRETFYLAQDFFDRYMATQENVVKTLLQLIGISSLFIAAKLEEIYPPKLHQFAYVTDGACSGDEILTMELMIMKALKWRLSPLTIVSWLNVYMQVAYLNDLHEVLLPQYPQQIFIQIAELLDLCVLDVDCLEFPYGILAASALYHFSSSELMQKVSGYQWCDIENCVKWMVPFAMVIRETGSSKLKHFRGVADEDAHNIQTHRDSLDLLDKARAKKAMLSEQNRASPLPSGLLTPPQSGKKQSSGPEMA

On to `CC(Nc1ccc(Cl)cc1)C(=O)Nc1nc2ccc3[nH]ncc3c2s1` (stereo not shown) [compound 24], for which the IC50 at recombinant human βARK1 was 8 nM; on CDK2/Cyclin E complex, 50 nM; at CDK3/Cyclin E complex, 75 nM; in [1], 900 nM; in test [2], 4800 nM; in test [3], 3200 nM. Besides, the IC50 in test [4] was 3800 nM; in test [5], 4600 nM; in the test with leukemia cell line KG-1a, below 100 nM.

As for `CCC(=O)Nc1cc(NC(C)(C)C(=O)Nc2nc3c(C(F)(F)F)cc4[nH]ncc4c3s2)ccc1F` [compound 76], the IC50 was 9.3 nM on recombinant human βARK1; 294 nM on CDK2/Cyclin E complex; 124 nM at CDK3/Cyclin E complex; 900 nM in test [1]; 4900 nM in test [2]; 1800 nM in test [3]. Further, the IC50 was determined as 1500 nM in test [6], 4600 nM in test [4], 2700 nM in [5] and 300 nM in the test on leukemia cell line KG-1a.
